# Experimental data as given in patent US20140135357A1, “DOSE REGIME FOR CAMPTOTHECIN DERIVATIVES” (Taiwan Liposome Company, Ltd., priority 2012, published 2014).
# Experiment: Phase I clinical trial: pharmacokinetic analysis of TLC388HCl diastereomers and metabolites after IV infusion
# [1] = Day 1, dose group 1.5 mg/m^2 TLC388HCl, Mean (SD)
# [2] = Day 1, dose group 3.0 mg/m^2 TLC388HCl, Mean (SD)
# [3] = Day 1, dose group 6.0 mg/m^2 TLC388HCl, Mean (SD)
# [4] = Day 1, dose group 9.0 mg/m^2 TLC388HCl, Mean (SD)
# [5] = Day 1, dose group 20.0 mg/m^2 TLC388HCl, Mean (SD)
# [6] = Day 1, dose group 30.0 mg/m^2 TLC388HCl, Mean (SD)
# [7] = Day 1, dose group 35.0 mg/m^2 TLC388HCl, Mean (SD)
# [8] = Day 1, dose group 40.0 mg/m^2 TLC388HCl, Mean (SD)
# [9] = Day 1, dose group 50.0 mg/m^2 TLC388HCl, Mean (SD)
# [10] = Day 1, dose group 60.0 mg/m^2 TLC388HCl, Mean (SD)
# [11] = Day 8, dose group 1.5 mg/m^2 TLC388HCl, Mean (SD)
# [12] = Day 8, dose group 3.0 mg/m^2 TLC388HCl, Mean (SD)
# [13] = Day 8, dose group 6.0 mg/m^2 TLC388HCl, Mean (SD)
# [14] = Day 8, dose group 9.0 mg/m^2 TLC388HCl, Mean (SD)
# [15] = Day 8, dose group 20.0 mg/m^2 TLC388HCl, Mean (SD)
# [16] = Day 8, dose group 30.0 mg/m^2 TLC388HCl, Mean (SD)
# [17] = Day 8, dose group 35.0 mg/m^2 TLC388HCl, Mean (SD)
# [18] = Day 8, dose group 40.0 mg/m^2 TLC388HCl, Mean (SD)
# [19] = Day 8, dose group 50.0 mg/m^2 TLC388HCl, Mean (SD)
# [20] = Day 8, dose group 60.0 mg/m^2 TLC388HCl, Mean (SD)
# [21] = patients treated with 60 mg/m^2 of TLC388HCl (N = 6)
# Procedure: A non-randomized phase I clinical trial was conducted at 4 institutions in the US and Taiwan.
# Patients were included in this trial if they are over the age of 18, with advanced cancer and the ECOG performance status is 0 or 1. […] Patients were excluded from the study if they have previously received more than 3 regimens of chemotherapy, or if they have received chemotherapy or radiotherapy within 4 weeks of the trial recruitment.
# Eligible patients were given the pharmaceutical composition of the present invention, comprising a mixture of TLC388HCl and mPEG2000-DSPE in a molar ratio of 1:0.7 to 1:0.9 (known as Lipotecan®). […] The pharmaceutical composition was administered as a 30-min IV infusion, on days 1, 8, and 15 of a 28-day cycle (i.e. 3 IV infusions per 28-day cycle).
# Serum samples were collected from the patients for pharmacokinetic analysis on day 1, day 8 and day 15 of Cycles 1 and 2, at the following times:
# Post IV infusion: (Day 1 and 8 of Cycle 1): 33 min; 40 min; 50 min; 1 h; 1 h 30 min; 2 h; 4 h and 8 h. Post IV infusion (Day 15 of Cycle 1 and Day 1, 8, and 15 of Cycle 2): 4 h. Patients were assessed every 8 weeks, after 2 cycles of treatments.
# During the 2-cycle study period, the patients were examined regularly for the following outcomes: • Side effect/DLT; • The pK profiles of the (S,S) and (S,R) diastereomers of TLC388HCl, its 3 metabolites (TLC-U1, TLC-U2 and Topotecan) on day 1 and day 8 of the treatment cycle; and • Anti-cancer efficacy.
structure (smiles),measurement,setting,value
"CCC1(OC(=O)C(C)ON=C2c3cc([N+](=O)[O-])cc([N+](=O)[O-])c3-c3c2cc([N+](=O)[O-])cc3[N+](=O)[O-])C(=O)OCc2c1cc1n(c2=O)Cc2cc3c(CN(C)C)c(O)ccc3nc2-1.Cl (stereo not drawn) [S,R TLC388HCl]",difference between PK profiles on Day 1 and Day 8,Cycle 1,no significant difference
same,AUC0-t,[1],1.646 ng·h/mL
same,Cmax,[1],3.188 ng/mL
same,Tmax,[1],0.606 (0.106) hr
same,t1/2,[1],2.603 (3.591) hr
same,AUC0-t,[2],4.728 ng·h/mL
same,Cmax,[2],2.743 ng/mL
same,Tmax,[2],0.933 (0.936) hr
same,AUC0-t,[3],1.564 ng·h/mL
same,Cmax,[3],4.073 ng/mL
same,Tmax,[3],0.467 (0.209) hr
same,AUC0-t,[4],0.821 ng·h/mL
same,Cmax,[4],2.196 ng/mL
same,Tmax,[4],0.354 (0.209) hr
same,t1/2,[4],0.197 (0.218) hr
same,AUC0-t,[5],8.671 ng·h/mL
same,Cmax,[5],29.303 ng/mL
same,Tmax,[5],0.250 (0.000) hr
same,t1/2,[5],2.828 (4.510) hr
same,AUC0-t,[6],3.624 ng·h/mL
same,Cmax,[6],12.930 ng/mL
same,Tmax,[6],0.396 (0.292) hr
same,t1/2,[6],0.258 (0.271) hr
same,AUC0-t,[7],138.61 ng·h/mL
same,Cmax,[7],263.58 ng/mL
same,Tmax,[7],0.709 (0.083) hr
same,t1/2,[7],3.030 (1.537) hr
same,AUC0-t,[8],10.818 ng·h/mL
same,Cmax,[8],28.259 ng/mL
same,Tmax,[8],0.415 (0.152) hr
same,t1/2,[8],0.460 (0.772) hr
same,AUC0-t,[9],14.387 ng·h/mL
same,Cmax,[9],43.180 ng/mL
same,Tmax,[9],0.403 (0.143) hr
same,t1/2,[9],0.483 (0.334) hr
same,AUC0-t,[10],11.285 ng·h/mL
same,Cmax,[10],63.194 ng/mL
same,Tmax,[10],0.357 (0.148) hr
same,t1/2,[10],0.639 (0.425) hr
same,AUC0-t,[11],0.449 ng·h/mL
same,Cmax,[11],0.916 ng/mL
same,Tmax,[11],0.489 (0.215) hr
same,t1/2,[11],0.087 h
same,AUC0-t,[12],0.574 ng·h/mL
same,Cmax,[12],1.811 ng/mL
same,Tmax,[12],0.350 (0.173) hr
same,t1/2,[12],0.050 (0.008) hr
same,AUC0-t,[13],2.190 ng·h/mL
same,Cmax,[13],8.287 ng/mL
same,Tmax,[13],0.467 (0.209) hr
same,t1/2,[13],0.072 h
same,AUC0-t,[14],5.396 ng·h/mL
same,Cmax,[14],3.325 ng/mL
same,Tmax,[14],2.408 (3.729) hr
same,t1/2,[14],0.133 (0.084) hr
same,AUC0-t,[15],4.707 ng·h/mL
same,Cmax,[15],15.753 ng/mL
same,Tmax,[15],0.328 (0.135) hr
same,t1/2,[15],0.115 (0.064) hr
same,AUC0-t,[16],18.892 ng·h/mL
same,Cmax,[16],38.413 ng/mL
same,Tmax,[16],0.512 (0.240) hr
same,t1/2,[16],0.202 (0.242) hr
same,AUC0-t,[17],139.26 ng·h/mL
same,Cmax,[17],403.60 ng/mL
same,Tmax,[17],0.621 (0.141) hr
same,t1/2,[17],3.329 (2.590) hr
same,AUC0-t,[18],34.254 ng·h/mL
same,Cmax,[18],76.660 ng/mL
same,Tmax,[18],0.303 (0.113) hr
same,t1/2,[18],0.411 (0.676) hr
same,AUC0-t,[19],39.251 ng·h/mL
same,Cmax,[19],97.288 ng/mL
same,Tmax,[19],0.297 (0.104) hr
same,t1/2,[19],0.764 (1.045) hr
same,AUC0-t,[20],13.377 ng·h/mL
same,Cmax,[20],47.340 ng/mL
same,Tmax,[20],0.450 (0.115) hr
same,t1/2,[20],1.416 (1.169) hr
same,Dose-normalized AUClast,[21],0.82 ± 1.92 nM*h/(mg/m^2)
same,Dose-normalized Cmax,[21],1.63 ± 3.77 nM/(mg/m^2)
same,Tmax,[21],0.47 ± 0.30 h
same,t1/2,[21],1.08 ± 1.77 h
same,half-life,"plasma, after IV administration of TLC388HCl composition",a few minutes
